The results in this text go back to ChEMBL document CHEMBL1129988, “4-substituted cubylcarbinylamines: a new class of mechanism-based monoamine oxidase B inactivators” (J Med Chem, 1997).

A short description of this test: Partition ratio was determined.
As for `NCC12C3C4C1C1C2C3C41C1CC1` (stereo not drawn), the Partition ratio worked out at 536.

For `NCC12C3C4C1C1C2C3C41c1ccccc1` (stereo not drawn), the Partition ratio stood at 277. Take `NCC12C3C4C5C3C1C5C42` (stereo not drawn): the Partition ratio is 152.
